Measurements from patent publication US20200385331A1, “ALTERNATIVE KETONE ESTERS AND PRODUCTION PROCESSES THEREOF” (KetoneAid Inc., priority 2018, published 2020).

Experiments:
[1] = exposure to conditions mimicking the pH of the gut (beta hydroxy dehydration at low pH); assay type: physicochemical; conditions: for dehydration of exposed beta hydroxy groups relative to the salts or free acid of β-hydroxybutyrate: low pH conditions
From the text: The present invention generally relates to means of protecting or stabilizing the beta hydroxy group in β-hydroxybutyrate in order to prevent beta hydroxy dehydration in the presence of strong acid, such as found in the stomach. That reaction is a type of gastric degradation which yield compounds with no known metabolic therapy. […] Stabilizing the beta hydroxy group is possible by replacing the carboxylic acid functional group with an ester functional group, which prevents resonance between the two oxygen atoms by hydrogen and considerably stabilizes the beta hydroxy group reducing dehydration by as much as 40% compared to salts and the free acid of β-hydroxybutyrate. Protecting the beta hydroxy group is defined by replacing the beta hydroxy group with a second molecule of β-hydroxybutyrate forming an ester bond at the previous beta hydroxy functional group and yielding a dimer ester (DE) of β-hydroxybutyrate. Further described herein are similar therapeutic agents, compositions, and production processes thereof. […] The Dimer Esters protecting the beta hydroxy group are far less susceptible than any other identified compound to dehydration because only one beta hydroxy group is exposed of the two effective molecules of β-hydroxybutyrate This is disclosed in the prior art providing room for more advantageous compounds and formulations thereof as described herein. A third experiment was carried out exposing the salts and KME to conditions mimicking the pH of the gut.

[2] = healthy resting adults; cited from earlier work

Row | dehydration of exposed beta hydroxy groups relative to the salts or free acid of β-hydroxybutyrate [1] | dehydration on exposure to conditions mimicking the pH of the gut ([1]; third experiment, yields undesirable products) | Compound | increase of myocardial output [2]
1 | dehydrate to a far lesser extent |  | CC(CCO)OC(=O)C[C@@H](C)O (stereo partly shown) [SKE] | 
2 |  |  | CC(O)CC(=O)O (stereo not drawn) [beta hydroxybutyrate] | 50%
3 | dehydrate to a far lesser extent | Rapid dehydration was observed | C[C@@H](O)CCOC(=O)C[C@@H](C)O [KME, (3R)-hydroxybutyl (3R)-hydroxybutyrate] | 
